Structures are written as SMILES.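 Five compound concentrations were applied to cells in 96-well plates for 48 hours; endpoints were derived by simple linear interpolation of the resulting dose-response curve. GI50 is the concentration that inhibits growth by half. Definition used: TGI = concentration required for complete inhibition of growth.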 A value given as a limit tells only on which side of the number the result lay.

The results in this text go back to PubChem BioAssay (NCI).

Holding throughout (assay): NCI tumour cell line growth inhibition, 48 h
Assay [1] deals with IGROV1 ovarian.
The subject of assay [2] is U251 CNS.
For assay [3], the system named is HS 578T breast.
Assay [4] deals with SW-620 colon.
The test system of assay [5] is MDA-MB-231 breast.
Assay [6] relates to SK-OV-3 ovarian.
In assay [7] the test system is HCT-116 colon.
Assay [8] has as its system OVCAR-5 ovarian.
The subject of assay [9] is OVCAR-8 ovarian.
Assay [10] relates to COLO 205 colon.

`C(=C\c1ccc(OCC2CO2)cc1)/C1=NCOC1` (stereo not given): the GI50 in [1] is 5.74 µM; in assay [2] it was 10.1 µM; in assay [3] it was 16 µM; in [4], 6.1 µM; in [5], 14.7 µM; in assay [6], 8.92 µM. The GI50 in assay [7] is 7.01 µM; in [8] it was 16.4 µM; in assay [9], 5.81 µM; in [10], 6.33 µM. For the same compound, the TGI in assay [1] was 20.4 µM; in assay [2], 25 µM; in assay [3], 54.2 µM; in [4] it was 22.5 µM; in assay [5], 30.7 µM; in assay [6], 25.5 µM. Moreover, the TGI is 24.1 µM in [7], 37.1 µM in assay [8], 28 µM in assay [9] and 32.4 µM in assay [10].
For `c1ccc2c(c1)[nH]c1c3ccccc3sc21`, the TGI in assay [1], in assay [2], in assay [3], in assay [4], in [5] and in [6] was greater than 100 µM each time. The TGI in assay [7], in assay [8], in [9] and in [10] was greater than 100 µM throughout.
`Cn1cc(-c2nc(-c3cn(C)c4ncccc34)cs2)c2ccccc21`: the GI50 in assay [1] is 1.39 µM; in assay [2], 1.53 µM; in assay [3], 4.14 µM; in [4] it was 1.24 µM; in assay [5], 3.16 µM; in assay [6], 1.98 µM. The GI50 in [7] is 0.802 µM; in assay [8], 4.92 µM; in assay [9], 3.43 µM; in [10], 1.68 µM. For the same compound, the TGI in assay [1] is 38.7 µM; in assay [2], 11.4 µM; in assay [3] it was greater than 100 µM; in [4], greater than 100 µM; in [5], 21.8 µM; in assay [6], 5.31 µM. The TGI was 18.4 µM in assay [7], 45.1 µM in [8], greater than 100 µM in [9] and 14 µM in assay [10].
With `OCC1OC(n2cnc3c(NCc4ccco4)ncnc32)C(O)C1O` (stereo not given), the GI50 in [1] is 2.09 µM; in assay [2], 4.43 µM; in [3], 3.38 µM; in assay [4], 0.849 µM; in assay [5], 0.348 µM; in assay [6], 1.6 µM. Moreover, the GI50 in [7] was 0.338 µM; in [8] it was 4.76 µM; in [9], 0.16 µM; in assay [10], 2.25 µM. For the same compound, the TGI in [1] is 13.9 µM; in assay [2], greater than 100 µM; in assay [3], greater than 100 µM; in assay [4], greater than 100 µM; in [5], 18.8 µM; in assay [6], 14.2 µM. The TGI in [7] is 1.59 µM; in [8], greater than 100 µM; in assay [9] it was 3.6 µM; in [10], 7.83 µM.
Turning to `O=c1[nH]c2ccccc2n1C1CCN(CCOc2ccccc2)CC1`, the GI50 is 91.7 µM in [1]; 20.5 µM in assay [2]; 20.8 µM in assay [3]; 50.1 µM in [4]; 27 µM in assay [5]; 42.9 µM in assay [6]. Also, the GI50 in assay [7] is 10.7 µM; in [8] it was 47.8 µM; in assay [9], 13.3 µM; in [10] it was 14.5 µM. For the same compound, the TGI is greater than 100 µM in assay [1]; greater than 100 µM in [2]; 77.6 µM in assay [3]; greater than 100 µM in assay [4]; greater than 100 µM in assay [5]; greater than 100 µM in assay [6]. Further, the TGI in assay [7] is greater than 100 µM; in assay [8], greater than 100 µM; in [9] it was greater than 100 µM; in assay [10] it was 45.8 µM.
With `CCOC(=O)c1cc2c(n1Cc1ccccc1OC)-c1oncc1CCC2`, the GI50 in [1] was 1.99 µM; in assay [2], 3.78 µM; in assay [3], 3.38 µM; in [4], 2.02 µM; in assay [5], 9.12 µM; in assay [6] it was 2.7 µM. Besides, the GI50 in assay [7] is 3.79 µM; in [8] it was greater than 100 µM; in assay [9], 3.85 µM; in assay [10], 0.878 µM. Besides, the TGI in assay [1] is greater than 100 µM; in assay [2], greater than 100 µM; in [3], greater than 100 µM; in [4], greater than 100 µM; in assay [5], greater than 100 µM; in assay [6], 19.7 µM. Moreover, the TGI in [7] is greater than 100 µM; in [8], greater than 100 µM; in assay [9], greater than 100 µM; in assay [10], 3.97 µM.
Regarding `Nc1ncnc2c1ncn2CCCCC(=O)O`, the TGI in assay [1], in assay [2], in assay [3], in assay [4], in assay [5] and in assay [6] was greater than 100 µM in each case. Also, the TGI in assay [7], in assay [8], in assay [9] and in assay [10] was greater than 100 µM each time.
